Values of other authors in patent publication US11980624B2, “Methods for administering compositions comprising hydroxytyrosol and boswellic acid” (Nutramax Laboratories, Inc., priority 2016, dated 2024).

Conditions: single oral 2.5 mg/kg dose, human subjects

peak plasma concentration: 1.11 ± 0.20 µmol/L
Structure (SMILES): OCCc1ccc(O)c(O)c1 [hydroxytyrosol, 4-(2-Hydroxyethyl)-1,2-benzenediol]
